# Experimental data as given in patent US7214671B2, “Use of 2-methylene-19-nor-20(S)-1α,25-dihydroxyvitamin D3 for the prophylaxis of bone diseases” (Wisconsin Alumni Research Foundation, priority 2004, dated 2007).
# Several values for one entry are separate records, joined by “and”; a condition that tells them apart may be missing. Equal values may be shown once. Entries after “also recorded” stand apart in the source; their conditions may differ.
# How the values were obtained:
# [1] = biological target: T1, full length recombinant rat receptor (nuclear vitamin D receptor) (Rattus norvegicus, UniProt P13053); assay: Competitive binding of [3H]-1α,25-(OH)2-D3 to full length recombinant rat vitamin D receptor; conditions: FIG. 1
# T1 construct: the full length recombinant rat receptor
# T1 sequence (P13053 1-423): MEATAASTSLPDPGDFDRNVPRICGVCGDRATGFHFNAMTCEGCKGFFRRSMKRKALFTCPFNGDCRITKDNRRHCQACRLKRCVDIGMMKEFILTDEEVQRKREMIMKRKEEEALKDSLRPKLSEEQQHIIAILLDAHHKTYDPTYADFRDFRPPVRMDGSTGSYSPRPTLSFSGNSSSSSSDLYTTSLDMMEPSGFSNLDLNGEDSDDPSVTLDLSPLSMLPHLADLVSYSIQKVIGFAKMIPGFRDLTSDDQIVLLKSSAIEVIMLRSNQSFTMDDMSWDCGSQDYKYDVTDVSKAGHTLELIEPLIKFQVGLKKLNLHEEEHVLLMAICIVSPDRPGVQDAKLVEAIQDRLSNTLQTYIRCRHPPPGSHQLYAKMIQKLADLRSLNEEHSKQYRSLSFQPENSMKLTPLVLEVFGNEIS
# [2] = system: intestinal calcium transport; assay: Intestinal calcium transport in vitamin D-deficient rats (everted gut sac); type: in vivo, rat; conditions: oral gavage 7 consecutive days, FIG. 2
# Protocol: Values represent means±standard error.
# (§1) The intestinal calcium transport and bone mobilization studies were carried out as described by Sicinski et al. (J. Med. Chem. 41, 4662–4674, 1998) and Suda et al. (J. Nutr. 100, 1049–1052, 1970).
# [3] = system: mobilization of bone calcium; assay: Bone calcium mobilization (serum calcium) in vitamin D-deficient rats; type: in vivo, rat; conditions: serum calcium 24 hours after last dose, zero calcium diet, FIG. 3
# Protocol: Blood serum calcium was measured 24 hours following the last dose in the rats as described in FIG. 2. Values represent mean±standard error.
# as §1
# The in vivo tests of increasing serum calcium of rats on a zero calcium diet provides an insight to […] or bone activity of 2MD.
# [4] = system: HL-60 promyelocytic cells; assay: HL-60 cell differentiation into monocytes; type: cell-based; conditions: FIG. 5
# Protocol: The differentiation of HL-60 promyelocytic cells into monocytes was determined as described by Ostrem et al. (J. Biol. Chem. 262, 14164–14171, 1987).
# [5] = system: ovariectomized old female rats; assay: Treatment of ovariectomized old female rats (bone mass, serum calcium, femur ash); type: in vivo, rat; conditions: doses of Table 1
# Excerpt: Values in the figure are mean±standard error.
# [6] = system: Rhesus monkeys; assay: Serum calcium after single oral bolus dose in Rhesus monkeys; type: in vivo, Rhesus monkey; parameters: dose or concentration left out as unconfirmed; conditions: 24 hours after dose, FIG. 10
# Protocol: FIG. 10 is a line graph illustrating the blood serum calcium levels 24 hours after dose in Rhesus monkeys given a single oral bolus dose of 2-methylene-19-nor-20(S)-1α,25-dihydroxyvitamin D3 (2MD) at varying concentrations;
# These and other tests indicate that primates will tolerate 2MD extremely well which may give a very large window between efficacy and the danger of hypercalcemia in man.
# [7] = system: normal adult female Sprague-Dawley rats; assay: Building bone mass in normal adult female rats (BMD, body weight, serum calcium); type: in vivo, rat; conditions: 2.5 ng/kg/d oral
# Protocol: All 7-month old, nulliparous female, Sprague-Dawley rats (Harlan Sprague-Dawley, Madison, Wis.) were sham-operated at 7 months of age.
# Beginning with arrival in the facility, rats were fed a purified rodent diet (“Diet 11”) prepared in-house (Suda et al, 1970, J. Nutr., 100:1049–1052) and containing 0.47% calcium, 0.3% phosphorus and 1.6 IU vitamin D3/g. To maintain consistent body weights (monitored weekly), rats were fed a total of 150 g diet/week, i.e. 21.5 g/day/rat.
# Rats were dosed daily beginning 5–6 weeks post-surgery. Neobee oil (vehicle) or 2MD were delivered to the back of the tongue in 100 μL. The dosing solution concentrations were adjusted monthly based on group-average body weights.
# At predose and at 1, 2, 4, 6, 10, 11, 18 and 25 weeks after dose, blood was collected 24 hr. after the most recent dose from the tail artery of ether-anesthetized rats. Serum was diluted in 0.1% lanthum chloride and the concentration of calcium determined by atomic absorption spectrometry. The values shown are averages for all rats, and include standard errors.
# Both total body BMD and appendicular (right distal and proximal femur) BMD were determined by dual-energy X-ray absorptiometry (Lunar DPXα-Madison, Wis.; Small Animal Software-version 1.0e) at weeks 0, 8, 16, and 24. Appendicular BMD was performed as described (Haffa et al, 2000, J. Bone Min. Res. 15:872). The values shown are averages for all rats and include standard errors.
smiles,measurement,setting,value
"C=C1[C@H](O)CC(=C/C=C2\CCC[C@]3(C)[C@@H]([C@@H](C)CCCC(C)(C)O)CC[C@@H]23)C[C@H]1O [2MD, 2-methylene-19-nor-20(S)-1α,25-dihydroxyvitamin D3]","binding to the receptor as compared to the standard 1,25-(OH)2D3",[1],"bound equally well; also recorded: about as active as 1,25(OH)2D3"
same,"intestinal calcium transport activity compared with 1,25(OH)2D3",[2],"activity similar to that of 1,25-dihydroxyvitamin D3; also recorded: approximately equal"
same,"potency relative to 1,25(OH)2D3 in mobilization of bone calcium",[3],100 times and 80–100 times
same,"potency relative to 1,25(OH)2D3 on HL-60 cell differentiation",[4],10–50 times
same,change in serum calcium at dosage levels that elevated bone mass,[5],no change in serum calcium
same,elevation of serum calcium concentration,[6],does not cause significant elevation
same,increase in cancellous bone BMD,"[7]; 24 weeks, FIG. 12A",14%
same,increase in cortical bone,[7]; FIG. 12B,6%
same,change in body weight,[7]; FIG. 13A,absence of any change
same,change in serum calcium,[7]; FIG. 13B,absence of any change
same,total body BMD versus vehicle control,"[7]; from 8 to 24 weeks, FIG. 11",increased above vehicle-control animals
